Reference: PMC5727127, “H3K14ac is linked to methylation of H3K9 by the triple Tudor domain of SETDB1” (Nature Communications, 2017)

Key:
[1] = system: SETDB1 3TD, GST-tagged, wildtype; assay: Modified histone peptide array binding of 3TD wildtype; details: GST-tagged 3TD, modified histone peptide arrays
Experimental: (§1) Experiments to determine the binding specificity of 3TD wildtype and mutants were performed using CelluSpots peptide arrays (MODified Histone Peptide Array, Active Motif), as described previously, in 20 mM HEPES pH 7.5, 100 mM KCl, 1 mM EDTA, 0.2 mM DTT, and 10% glycerol. All peptide array binding studies were conducted at least in two technical repeats. Annotations of all spots are given in Supplementary Table 2. The amounts of GST-fused Tudor proteins used in peptide array binding and western blot analyses ranged from 0.5 to 100 nM. For methylation analysis, MODified Histone Peptide arrays (Active Motif) were incubated with 20 nM SETDB1 in buffer (50 mM Tris/HCl pH 9.0, 4 mM DTT, 5 mM MgCl2) supplemented with 0.38 µM radioactively labeled [methyl-3H]-AdoMet (Perkin Elmer) for 2 h at room temperature. The arrays were then washed 5 times with wash buffer (100 mM NH4HCO3 and 1% SDS), incubated in Amplify NAMP100 (GE Healthcare) for 5 min, and then exposed to Hyperfilm TM ECL high-performance chemiluminescence film (GE Healthcare) in the dark at −80 °C for 1–7 days.

[2] = system: SETDB1 3TD Y268A; assay: Modified histone peptide array binding of 3TD Y268A; details: Y268A vs wildtype; peptide array and ITC assays
Experimental: as §1

[3] = system: SETDB1 3TD W358A; assay: Modified histone peptide array binding of 3TD W358A; details: W358A vs wildtype
Experimental: as §1

[4] = target: T1, SETDB1 3TD W358A (TD3) (Homo sapiens, UniProt Q15047, W358A); assay: ITC binding of 3TD W358A to H3 peptides; details: W358A vs wildtype
T1 construct: cloned into the pET28a-MHL (residues 190–410), pGEX6P2, and pGEX-4T-1 (residues 197–403) vectors; 6×His; made in house; host or cells: E. coli BL21 derivative (SGC) with pRARE
Experimental: (§2) ITC experiments were carried out at 25 °C on a VP-ITC calorimeter (MicroCal). Protein and peptide were kept in an identical buffer of 20 mM Tris/HCl pH 7.0 and 150 mM NaCl. ITC measurements were carried out with protein and ligand concentrations ranging from 50 to 100 μM and 1–2 mM, respectively. Binding isotherms were analyzed by nonlinear least-squares fitting of the data using Microcal ORIGIN software (Microcal) using a one-site binding model.

[5] = system: SETDB1 3TD F332A; assay: Modified histone peptide array binding of 3TD F332A; details: replacement of F332 by alanine; peptide array and ITC
Experimental: as §1

[6] = target: T2, SETDB1 3TD, wildtype (Homo sapiens, UniProt Q15047); assay: NMR chemical shift perturbation binding to 3TD; details: 15N HSQC, 25 °C, pH 7.0, 150 mM NaCl
T2 construct: cloned into the pET28a-MHL (residues 190–410), pGEX6P2, and pGEX-4T-1 (residues 197–403) vectors; 6×His; made in house; host or cells: E. coli BL21 derivative (SGC) with pRARE
Experimental: NMR experiments were collected on a Bruker Avance 500-MHz spectrometer equipped with a cryogenic probe. Chemical shift perturbation experiments were carried out using uniformly ^15N-labeled wildtype 3TD protein in 20 mM Tris/HCl pH 7.0 and 150 mM NaCl. ^1H, ^15N HSQC spectra were recorded at 25 °C in the presence of increasing concentrations of histone tail peptides. K d values were calculated by a nonlinear least-squares analysis in Kaleidagraph using the equation Δδ=ΔδmaxcL+cP+Kd-cL+cP+Kd^2-4cLcP∕2cP, where c L is the concentration of the peptide, c P is the concentration of the protein, Δδ is the observed normalized chemical shift change, and Δδ max is the normalized chemical shift change at saturation, calculated as Δδ=ΔδH^2+ΔδN∕5^2, where δ is the chemical shift in p.p.m.
Supplementary Figure 1: Peptide binding of 3TD. (a) Titration of 3TD binding to peptide arrays. Note the specific binding to H3K9me1/2/3-K14ac double modified […]
concentration (100 nM). (b) ITC analysis of 3TD binding to single modified H3 tail […]
peptides. (c) NMR chemical shift perturbation experiments carried out to detect potentially weak binding of 3TD to H3K14ac, H3K9me3 and unmodified H3. Weak binding of H3K14ac could be detected and the […]
H3 was observed. Panel a relates to Fig. 1, panels b and c to Fig. 2.
(1 picture or pasted object on this page, not shown here)

[7] = system: HEK293 cells; assay: Western blot of histone modifications after HDAC inhibitor treatment; assay type: cell-based, human; details: HEK293, 48 h, 0.4 mM TSA or 5 mM sodium butyrate; for K9 methylation content of H3 from treated cells: western blot anti-K9me; for H3K14ac signal of H3 from treated cells: western blot anti-K14ac
Experimental: (§3) Native histones were isolated by acid extraction[55] from HEK293 cells, and recombinant histone H3 was purchased from New England Biolabs. For the experiment with HDAC inhibitors, cells were treated for 48 h with 0.4 mM TSA or 5 mM sodium butyrate. Five micrograms of native histones and matching amount of recombinant H3 were electrophoresed on 18% SDS-PAGE and transferred onto nitrocellulose membranes. The membrane was then blocked in 5% milk in TBST and incubated with purified GST-tagged 3TD, followed by the anti-GST (GE Healtcare 27457701A, dilution 1:5000) and anti-goat antibody (Sigma A4174, dilution 1:10000). The amount of GST-fused Tudor protein used in western blot analyses was 100 nM. All experiments were performed in duplicates or triplicates. In the western blots, following antibodies were used: anti-K14ac (Millipore MABE351, dilution for checking specificity: 1:2000 or 1:1000; for western blot: 1:500), anti-H3K9me3 (Abcam ab8898, dilution 1:2000), anti-H3K9me2 (Abcam ab1220, dilution 1:1000), and anti-H3K4me3 (Abcam ab8580, dilution 1:2000). For specificity analysis of antibodies, see Supplementary Fig. 13. Secondary antibodies were anti-rabbit IgG HRP (GE Healtcare NA934, dilution 1:5000) and anti-mouse IgG HRP (GE Healtcare NXA931, dilution 1:5000). Native histone and nucleosome pull-down experiments were done at least in two biological repeats. All antibodies were used following the manufacturer’s recommendations. Uncropped gel images are shown in Supplementary Fig. 14.

[8] = system: HEK293 cells; assay: Far-western blot of 3TD binding to histones from HDAC inhibitor treated cells; assay type: cell-based, human; details: HEK293, 48 h, 0.4 mM TSA or 5 mM sodium butyrate, 100 nM GST-3TD
Experimental: as §3, with “All antibodies were used following the manufacturer’s recommendations. Uncropped gel images are shown in Supplementary Fig. 14.” left out

[9] = target: T3, SETDB1 3TD Y268A (TD2) (Homo sapiens, UniProt Q15047, Y268A); assay: ITC binding of 3TD Y268A to H3 peptides; details: Fig. 2c, Y268A relative to wildtype
T3 construct: cloned into the pET28a-MHL (residues 190–410), pGEX6P2, and pGEX-4T-1 (residues 197–403) vectors; 6×His; made in house; host or cells: E. coli BL21 derivative (SGC) with pRARE
Experimental: as §2

SMILES | peptide array binding, 3TD [1] | change of binding, Y268A [2] | change of peptide array binding, W358A [3] | fold reduction of affinity, W358A [4] [fold] | K9 methylation content of H3 from treated cells [7] | H3K14ac signal of H3 from treated cells [7] | 3TD binding to histones from treated cells [8] | other results
CC(=O)NCCCC[C@H](NC(=O)CNC(=O)CNC(=O)[C@@H](NC(=O)[C@H](CO)NC(=O)[C@H](CCCCN(C)C)NC(=O)[C@H](CCCNC(=N)N)NC(=O)[C@H](C)NC(=O)[C@@H](NC(=O)[C@H](CCC(N)=O)NC(=O)[C@@H](N)CCCCN)[C@@H](C)O)[C@@H](C)O)C(=O)N[C@@H](C)C(=O)N1CCC[C@H]1C(=O)N[C@@H](CCCNC(=N)N)C(=O)N[C@@H](CCCCN)C(=O)N[C@@H](CCC(N)=O)C(=O)O [H3K9me2/K14ac] | strong and selective binding | not affected | strong reduction in binding | 18 |  |  |  | change of binding, F332A [5]: strong reduction in affinity
C[C@H](NC(=O)[C@@H](NC(=O)[C@H](CCC(N)=O)NC(=O)[C@@H](N)CCCCN)[C@@H](C)O)C(=O)N[C@@H](CCCNC(=N)N)C(=O)N[C@@H](CCCC[N+](C)(C)C)C(=O)N[C@@H](CO)C(=O)N[C@H](C(=O)NCC(=O)NCC(=O)N[C@@H](CCCCN)C(=O)N[C@@H](C)C(=O)N1CCC[C@H]1C(=O)N[C@@H](CCCNC(=N)N)C(=O)N[C@@H](CCCCN)C(=O)N[C@@H](CCC(N)=O)C(=O)O)[C@@H](C)O [H3K9me3] |  |  |  |  |  |  |  | binding detected by NMR [6]: no detectable binding
CC(/C=C/C(=O)NO)=C\[C@@H](C)C(=O)c1ccc(N(C)C)cc1 [trichostatin A] |  |  |  |  | did not change | increased H3K14ac signal | increased 3TD binding | 
CC(=O)NCCCC[C@H](NC(=O)CNC(=O)CNC(=O)[C@@H](NC(=O)[C@H](CO)NC(=O)[C@H](CCCC[N+](C)(C)C)NC(=O)[C@H](CCCNC(=N)N)NC(=O)[C@H](C)NC(=O)[C@@H](NC(=O)[C@H](CCC(N)=O)NC(=O)[C@@H](N)CCCCN)[C@@H](C)O)[C@@H](C)O)C(=O)N[C@@H](C)C(=O)N1CCC[C@H]1C(=O)N[C@@H](CCCNC(=N)N)C(=O)N[C@@H](CCCCN)C(=O)N[C@@H](CCC(N)=O)C(=O)O [H3K9me3/K14ac] | strong and selective binding | clear reduction in affinity | only moderately reduced | 2 |  |  |  | relative binding affinity, Y268A [9]: specific loss in binding
CCCC(=O)[O-].[Na+] [sodium butyrate] |  |  |  |  | did not change | increased H3K14ac signal | increased 3TD binding | 
CNCCCC[C@H](NC(=O)[C@H](CCCNC(=N)N)NC(=O)[C@H](C)NC(=O)[C@@H](NC(=O)[C@H](CCC(N)=O)NC(=O)[C@@H](N)CCCCN)[C@@H](C)O)C(=O)N[C@@H](CO)C(=O)N[C@H](C(=O)NCC(=O)NCC(=O)N[C@@H](CCCCNC(C)=O)C(=O)N[C@@H](C)C(=O)N1CCC[C@H]1C(=O)N[C@@H](CCCNC(=N)N)C(=O)N[C@@H](CCCCN)C(=O)N[C@@H](CCC(N)=O)C(=O)O)[C@@H](C)O [H3K9me1/K14ac] | strong and selective binding | not affected | loss |  |  |  |  | loss of binding in ITC, W358A [4]: completely lost
